“Also recorded” adds a separate entry of the source.
Experiments:
[1] = test system: Berk-SS mice; assay: Urine concentrating ability (urine osmolality), glomerulopathy and survival in drug-treated sickle mice; format: in vivo
Excerpt: The Berk-AA mice are still relatively outbred and cannot be transplanted into BI/6 or Berk-SS mice without significant graft versus host disease. Knock-in SS (B6; 129-Hba^tm1(HBA)Tow Hbb^tm2(HBG1,HBB*)Tow/Hbb^tm3(HBG1,HBB)Tow/J) mice were kindly provided by Dr. Timothy Townes (University of Alabama, Birmingham). AT1R^−/− mice (B6.129P2Agtr1a^tm1Unc/J) were purchased from Jackson laboratories (Bar Harbor, Me.). AT2R^−/− mice were kindly provided by Dr. Tadashi Inagami (Vanderbilt University School of Medicine, Nashville, Tenn.). […]
Twenty-four hour urine was collected using metabolic cages. Urine volume was measured and then protein stabilization buffer (0.4 mM ophenanthroline, 1 mM p-hydroxymercuribenzoic acid and 0.12 mM pepstatin A and 0.5M EDTA, pH 8.0) was added to a portion of urine to stabilize Ang-11. […] Urine albumin level was measured using the mouse albumin ELISA kit (Bethyl Laboratories, Montgomery, Tex., catalog# E90-134). […] Urine osmolality was measured by vapor pressure osmometer, Vapro 5600, (Wescor Biomedical Systems, South Logan, Utah). Urine creatinine was measured using the creatinine parameter assay kit (R&D Systems, Minneapolis, Minn., catalog# KGE005). Plasma creatinine was measured using the creatinine assay kit (Abcam, Cambridge, Mass., catalog# ab65340) following the manufacturer's instructions. […]

[2] = test system: Berk-SS/WT chimeric mice; assay: Urine albumin, urine osmolality and glomerular disease in drug-treated sickle hematopoietic chimeras; format: in vivo, mouse; conditions: for albuminuria: Berk-SS/WT chimeric mice vs untreated chimeras; for glomerular disease: hematopoietic SCD chimeras; for UCA (urine osmolality): sickle chimeric mice, after 8 hour water deprivation
Excerpt: The Berk-AA mice are still relatively outbred and cannot be transplanted into BI/6 or Berk-SS mice without significant graft versus host disease. Knock-in SS (B6; 129-Hba^tm1(HBA)Tow Hbb^tm2(HBG1,HBB*)Tow/Hbb^tm3(HBG1,HBB)Tow/J) mice were kindly provided by Dr. Timothy Townes (University of Alabama, Birmingham). AT1R^-/- mice ([…]1Unc/J) were purchased from Jackson laboratories (Bar Harbor, Me.). AT2R^-/- mice were kindly provided by Dr. […] (Vanderbilt University School of Medicine, Nashville, Tenn.). Bone marrow from donor Berkeley sickle mice (or 057BI/6 control mice) were distributed 1:5 among the 057BI/6, AT1R^-/- and AT2R^-/- lethally irradiated (1175 cGy) recipient mice. All animals were maintained in the Cincinnati Children's Research Foundation's vivarium using protocols approved by the Institutional Animal Care and Use Committee. Twenty-four hour urine was collected using metabolic cages. Urine volume was measured and then protein stabilization buffer (0.4 mM ophenanthroline, 1 mM p-hydroxymercuribenzoic acid and 0.12 mM pepstatin A and 0.5M EDTA, pH 8.0) was added to a portion of urine to stabilize Ang-11. The rest of the urine was used for other analyses, including GFR, albumin, osmolality. Temporal assessments of urine albumin, creatinine and osmolality were made after an 8 hour water deprivation in SCD chimeric mice. […] Therefore, in Berk-SS mice (untransplanted/“straight SCD” native sickle mice) no water deprivation was performed prior to urine collection. Urine albumin level was measured using the mouse albumin ELISA kit (Bethyl Laboratories, Montgomery, Tex., catalog# E90-134). The ELISA was performed in a 96-well clear micro-plate (R&D systems, Minneapolis, Minn., catalog # DY990) as per manufacturer's instructions. Urine osmolality was measured by vapor pressure osmometer, Vapro 5600, (Wescor Biomedical Systems, South Logan, Utah). Urine creatinine was measured using the creatinine parameter assay kit (R&D Systems, Minneapolis, Minn., catalog# KGE005). Plasma creatinine was measured using the creatinine assay kit (Abcam, Cambridge, Mass., catalog# ab65340) following the manufacturer's instructions. Mice were given the following drug treatments: a) Captopril (West-Ward Pharmaceutical, West Eatontown, N.J., NDC number #0143-1173-01) 0.15 mg/ml in drinking water. b) Losartan (Teva Pharmaceuticals USA Inc, North Wales, Pa., -NDC number#00937366-98) 0.3-0.6 mg/ml in drinking water. c) C21 (Vicore Pharma AB, […], Sweden; Batch/Lot number # A11202910) 10 mg/kg/day in drinking water. Losartan and captopril water bottles were changed twice a week with fresh drugs and C21 was changed daily. In order to determine the role of the angiotensin receptors in SN, the inventors generated hematopoietic chimeric animals through bone marrow (BM) transplantation. First, they transplanted BM from Berk-SS mice into WT [057BI/6 (CD45.2+) or congenic CD45.1+BI/6] mice; mice that developed >95% sickle chimerism were followed for 6-9 months. Berk-SS/WT chimeras also developed hyperangiotensinemia followed by SN. Like in native (untransplanted) sickle mice, losartan or captopril ameliorated glomerular disease, but worsened UCA of hematopoietic SCD chimeras.

[3] = test system: erythrocytes and platelets of SCD mice; assay: ROS analysis (CM-H2DCFDA flow cytometry) of blood cells of drug-treated SCD mice; format: in vivo, mouse
Method: (§1) ROS was measured in WBC, RBC and platelets by mixing 0.5 μl of whole blood with 100 μl of FACS buffer (1×PBS, 0.5% bovine serum albumin), 0.1 μl of biotin anti-mouse Ter-119/erythroid Ly-76 antibody (BD Biosciences, San Jose, Calif., catalog#553672), 1 μl of Streptavidin APC-CyTM^7 (BD Biosciences, catalog#554063), 1 μl of PE anti-mouse CD45 antibody (BD Biosciences, cat#553081). […] All the tubes were incubated at room temperature for 20-30 minutes. The samples were washed with PBS at 200×g for 5 min and 100 μl of CM-H2DCFDA in 1:200 dilution was added to all sample tubes and the CM-H2DCFDA compensation tube while 100 μl of PBS was added to the rest of three compensation samples. The tubes were incubated for 30 minutes at 37° C. All the tubes were washed with 500 μl of PBS and centrifuged at 200×g for 5 min. After removing the supernatant the pellet was re-suspended in 200 μl of ice-cold PBS. Samples were stored on ice until analyzed on a BD FACSCantoTM II flow cytometer (BD Biosciences, San Jose, Calif.) by gating on the WBC, RBC and platelets. Mice were given the following drug treatments: a) Captopril (West-Ward Pharmaceutical, West Eatontown, N.J., NDC number #0143-1173-01) 0.15 mg/ml in drinking water. b) Losartan (Teva Pharmaceuticals USA Inc, North Wales, Pa., -NDC number#00937366-98) 0.3-0.6 mg/ml in drinking water. c) C21 (Vicore Pharma AB, […], Sweden; Batch/Lot number # A11202910) 10 mg/kg/day in drinking water. Losartan and captopril water bottles were changed twice a week with fresh drugs and C21 was changed daily.

[4] = test system: RBC and platelets of Berk-SS/WT hematopoietic chimeras; assay: ROS analysis (CM-H2DCFDA flow cytometry) of blood cells of drug-treated Berk-SS chimeras; format: in vivo, mouse
Method: as §1

[5] = test system: Angiotensin-II; assay: Plasma and urine Angiotensin-II level (EIA) in drug-treated sickle mice; format: in vivo, mouse; conditions: compared to untreated Berk-SS controls
Method: Urine and plasma Angiotensin-II level was measured by using the Angiotensin II EIA kit (Cayman Chemical Company, Ann Arbor, Mich., catalog# A05880) following the manufacturer's instructions.
Mice were given the following drug treatments: a) Captopril (West-Ward Pharmaceutical, West Eatontown, N.J., NDC number #0143-1173-01) 0.15 mg/ml in drinking water. b) Losartan (Teva Pharmaceuticals USA Inc, North Wales, Pa., -NDC number#00937366-98) 0.3-0.6 mg/ml in drinking water. c) C21 (Vicore Pharma AB, Haraldsgatan 5, S-413 14 Goteborg, Sweden; Batch/Lot number # A11202910) 10 mg/kg/day in drinking water. Losartan and captopril water bottles were changed twice a week with fresh drugs and C21 was changed daily.

[6] = molecular target: T1, AT2 receptor (Rattus norvegicus, UniProt P35351); conditions: rat heart; regulation of TIMP1/MMP9 and TGF β1; cited from earlier work
T1 construct: Stimulation of the AT2 receptor with C21 (as defined herein) ameliorates LV fibrosis; host or cells: rat heart (in vivo, endogenous receptor)
T1 sequence (P35351 1-363): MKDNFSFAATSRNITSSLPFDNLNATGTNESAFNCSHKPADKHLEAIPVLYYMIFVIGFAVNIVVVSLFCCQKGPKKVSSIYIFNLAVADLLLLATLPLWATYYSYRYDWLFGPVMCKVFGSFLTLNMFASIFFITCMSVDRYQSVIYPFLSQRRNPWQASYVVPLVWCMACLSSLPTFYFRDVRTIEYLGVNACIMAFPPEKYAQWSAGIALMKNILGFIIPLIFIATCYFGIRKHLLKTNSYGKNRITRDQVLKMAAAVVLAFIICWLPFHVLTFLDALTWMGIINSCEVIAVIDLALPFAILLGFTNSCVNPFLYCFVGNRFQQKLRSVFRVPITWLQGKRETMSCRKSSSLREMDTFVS

| Structure (SMILES) | mortality ([1]; Berk-SS mice on drug from 4 weeks of age, from severe hyposthenuria and dehydration) | albuminuria [2] | glomerular disease [2] | UCA (urine osmolality) [2] | erythrocyte ROS [3] | platelet ROS [3] | RBC (erythrocyte) ROS [4] | platelet ROS [4] | plasma AngII levels [5] | urine AngII levels [5] | urine concentrating ability (UCA) ([1]; sickle (SCD) mice, drug in drinking water) | LV fibrosis [6] |
| --- | --- | --- | --- | --- | --- | --- | --- | --- | --- | --- | --- | --- |
| C[C@H](CS)C(=O)N1CCC[C@H]1C(=O)O [captopril] | high mortality | did not develop albuminuria | ameliorated | worsened | significantly lowered; also recorded: specifically lowered | unaffected | significantly lowered | not platelets; also recorded: unchanged | lower; also recorded: reduced | lower; also recorded: reduced | – | – |
| CCCCc1nc(Cl)c(CO)n1Cc1ccc(-c2ccccc2-c2nn[nH]n2)cc1 [losartan] | – | did not develop albuminuria | ameliorated | worsened | significantly lowered; also recorded: specifically lowered | unaffected | significantly lowered | not platelets; also recorded: unchanged | lower; also recorded: reduced | lower; also recorded: reduced | – | – |
| CCCCOC(=O)NS(=O)(=O)c1sc(CC(C)C)cc1-c1ccc(Cn2ccnc2)cc1 [Compound C21, N-butyloxycarbonyl-3-(4-imidazol-1-ylmethylphenyl)-5-iso-butylthiophene-2-sulfonamide] | – | – | – | – | – | – | – | – | – | – | improve | ameliorates |
